# In patent US10238689B2, “Methods for combating bacterial infections by killing persister cells with mitomycin C and/or cisplatin” (THE PENN STATE RESEARCH FOUNDATION, priority 2015, dated 2019):
# Where two headings read alike, the source gives them in different places.
# What was measured:
# E. coli BW25113 = assay: Validation of persisters (three rounds of the persister assay); type: cell-based, Escherichia coli; conditions: for survival rate: ciprofloxacin 5 μg/mL or ampicillin 100 μg/mL, 3 h
# Protocol: Validation of persisters. To validate that the persister cells are tolerant to antibiotics, not spontaneous resistant mutants, three rounds of the persister assay were performed. Overnight (16 h) cultures of E. coli BW25113 were diluted 1:1000 with fresh buffered LB and grown to a turbidity of ˜0.8 at 600 nm. […] After the first round of antibiotic treatment, a 1 mL sample was centrifuged at 10,000 rpm for 3 min, and the cells were resuspended in 1 mL of normal saline. […] For the second and third rounds, cell suspensions were diluted 1:100 with fresh buffered LB and regrown to a turbidity of ˜0.8 at 600 nm and used for antibiotic treatment followed by the drop assay.
# E. coli K-12 [1] = assay: Minimum inhibitory concentration (MIC) assay; type: cell-based, Escherichia coli; conditions: Escherichia coli, K12, 16 h, lack of turbidity, read-out: MIC
# Protocol: Minimum inhibitory concentration (MIC) assay. To determine the MICs of cisplatin for E. coli K-12, enterohemorrhagic E. coli (EHEC), S. aureus, and P. aeruginosa (PAO1 and PA14), freshly inoculated cultures (at least two independent cultures) in buffered LB (TSB for S. aureus) were incubated for 16 h with varying concentrations of cisplatin, and growth inhibition was assayed by the lack of turbidity.
# EHEC infection = type: in vivo, Caenorhabditis elegans; conditions: MMC 10 μg/mL, ciprofloxacin 5 μg/mL, ampicillin 100 μg/mL, 6 h exposure; four replicates
# E. coli K-12 cells = assay: Test of DNA crosslinking compounds for antimicrobial activity; type: cell-based, Escherichia coli
# Protocol: Stocks of cisplatin (2 mg/mL, Sigma-Aldrich, St. Louis, Mo., USA) were prepared in 0.1M NaClO4 and MMC (0.5 mg/mL, Fisher Scientific, Pittsburgh, Pa., USA) was prepared in water. Stocks of busulfan (2 mg/mL, Cayman Chemical, Ann Arbor, Mich., USA), melphalan (2 mg/mL, Cayman Chemical), dynemicin A (5 mg/mL, AdooQ, Irvine, Calif., USA), and tirapazamine (0.5 mg/mL, Sigma-Aldrich) were prepared in dimethylsulfoxide, the stock of cyclophosphamide (0.5 mg/mL, Cayman Chemical) was prepared in water, and the stock of carmustine (214 mg/mL, Enzo Life Sciences, Farmingdale, N.Y., USA) was prepared in ethanol.
# In this Example we tested seven other DNA crosslinking compounds: busulfan (100 μg/mL), carmustine (100 μg/mL) cisplatin (100 μg/mL), cyclophosphamide (100 μg/mL), dynemicin A (200 μg/mL), melphalan (100 μg/mL), and tirapazamine (10 μg/mL).
# EHEC biofilm cultures = conditions: M9-glucose, 24 h treatment, MMC 10 μg/mL, ciprofloxacin 5 μg/mL
# [2] = tested on: S. aureus (methicillin sensitive); assay: Planktonic antibiotic killing assay; type: cell-based, Staphylococcus aureus; conditions: rich medium (TSB), MMC 10 μg/mL, ciprofloxacin 5 μg/mL, 3 h
# Protocol: (§1) In order to obtain exponential and mid-stationary phase cultures in LB, buffered LB or TSB, overnight cultures (16 h) were diluted 1:1000 in fresh medium and grown to the desired turbidity (i.e., a turbidity below 2 at 600 nm for exponential phase and a turbidity of 3 to 4 at 600 nm for mid-stationary phase). Late-stationary phase cultures in LB or buffered LB were obtained by growing overnight cultures (16 h). In order to obtain exponential and late-stationary phase cultures in M9-glucose, overnight cultures (16 h) were washed diluted 1:1000 in M9-glucose and grown for the desired period of time (i.e., a turbidity of 0.4 at 600 nm for exponential phase and 24 h of growth for late-stationary phase). Anaerobically grown cultures were maintained with ˜20% CO2, ˜79% N2, and ˜1% H2. In order to obtain rifampicin-induced persister cultures in buffered LB, overnight cultures (16 h) were diluted 1:1000 in fresh medium and grown to a turbidity of 0.8 at 600 nm. Cultures were exposed to rifampicin (100 μg/mL) for 30 min, centrifuged, and resuspended in fresh medium to remove the rifampicin.
# E. coli K-12 [3] = type: cell-based, Escherichia coli; conditions: late stationary phase (16 h of growth), buffered LB; cisplatin 500 μg/mL (5×MIC), ciprofloxacin 5 μg/mL (100×MIC), 8 h
# Protocol: Persister cell killing and eradication assays (planktonic cells). For the time course experiment, late stationary phase cells of E. coli K-12 (wild-type and isogenic mutants) were prepared by growing cells overnight (16 h) in LB medium buffered with 100 mM KPO4 at pH 7.0 (buffered LB). A 1 mL culture was used for a drop (10 μL×3) assay to check cell viability at 0 h (i.e., before antibiotic treatment). […] At 1 h intervals, 1 mL culture was centrifuged at 10,000 rpm for 3 min, the supernatant was discarded, the cells were resuspended in 1 mL of normal saline (0.85% NaCl), and the cell suspension was serially diluted for a drop assay to check cell viability.
# To test for eradication, the wild-type E. coli K-12 cells were treated with cisplatin for 12 h, a 1 mL sample was centrifuged, the cell pellet was resuspended in 150 μL of normal saline, and the cells were spread on LB agar to check cell viability. Another 1 mL culture was diluted 1:10 with fresh buffered LB and the cells were incubated to allow any remaining cells to replicate. After 12 h, 18 h, and 24 h, 1 mL samples were centrifuged, resuspended in 150 μL of normal saline and spread on LB agar plates to check cell viability. At least two independent cultures were used.
# [4] = tested on: E. coli K-12 persister cells; assay: Rifampicin-induced persister cell killing assay; type: cell-based, Escherichia coli
# Protocol: Rifampicin-pretreatment was used to convert nearly all the E. coli exponentially-growing cells to persister cells. In brief, overnight cultures (16 h) of E. coli BW25113 were diluted 1:1000 in buffered LB and grown to a turbidity of 0.8 at 600 nm (250 mL flask, 250 rpm). Cultures were treated with rifampicin (100 μg/mL) for 30 min (250 mL flask, 250 rpm), centrifuged, and resuspended in fresh medium to remove the rifampicin. A 1 mL culture was used for a drop assay to check cell viability at 0 h. […] After 3 h, 1 mL of culture was centrifuged at 10,000 rpm for 3 min, the supernatant was discarded, the cells were resuspended in 1 mL of normal saline, and the cell suspension was serially diluted for a drop assay to check cell viability. In addition, 1 mL samples were centrifuged, and the cell pellet resuspended in 150 μL of normal saline and spread on LB agar.
# To test whether lower concentrations than 500 μg/mL of cisplatin generate resistant mutants, 5 mL cultures of rifampicin-induced persister cells were treated with 200 μg/mL of cisplatin and cells were enumerated by the drop assay using LB agar, LB agar with 200 μg/mL of cisplatin (LBCP200), and LB agar with 500 μg/mL of cisplatin (LBCP500).
# [5] = tested on: S. aureus biofilm cultures; assay: Biofilm antibiotic killing assay; type: cell-based, Staphylococcus aureus; conditions: minimal medium (modified M9-glucose), 24 h treatment, MMC 10 μg/mL, ciprofloxacin 5 μg/mL
# [6] = tested on: E. coli K-12 BW25113 VBNC cultures; assay: VBNC antibiotic killing assay; type: cell-based, Escherichia coli; conditions: culturable population of VBNC cultures; MMC 10 μg/mL, ciprofloxacin 5 μg/mL, 16 h
# Protocol: Overnight cultures (16 h) of E. coli K-12 BW25113 grown in LB were diluted 1:1000 in LB and grown to a turbidity of 3.0 at 600 nm. Cells were washed three times with 0.85% NaCl to remove nutrients and incubated in 0.85% NaCl for 32 days until the VBNC population was ˜1,000-fold higher than the culturable population. […] Samples (0.5 mL) were diluted 1:1 with LB to stimulate cellular respiration for 10 min prior to staining with 1 μL of 1 mM RedoxSensor™ Green dye and 1 μL of 20 mM propidium iodide. Samples were visualized in a hemocytometer (Hausser Scientific, Horsham, Pa., USA) using an Olympus BX61 confocal microscope (Olympus, Tokyo, Japan) at 200× magnification in order to determine viability of the VBNC population. Cell counting data was averaged from four images and experiment was performed with at least two independent cultures.
# E. coli K-12 [7] = assay: Planktonic antibiotic killing assay; type: cell-based, Escherichia coli; conditions: for persistence (surviving population): late-stationary phase, MMC 10, ciprofloxacin 5, gentamicin 10 μg/mL, 3 h
# Protocol: as §1
# E. coli O157:H7 (EHEC) = assay: Planktonic antibiotic killing assay; type: cell-based, Escherichia coli; conditions: late-stationary phase, M9-glucose; MMC 10 μg/mL, ciprofloxacin 5 μg/mL, 3 h
# Protocol: as §1
compound,measurement,setting,value
CC1(C)S[C@@H]2[C@H](NC(=O)[C@H](N)c3ccccc3)C(=O)N2[C@H]1C(=O)O [ampicillin],resistant colonies on antibiotic agar,E. coli BW25113; LBCipro5 or LBAmp100 agar,no colonies were detected
same,survival rate,E. coli BW25113; round 1,0.001±0.001%
same,survival rate,E. coli BW25113; round 2,0.0001±0.0000%
same,survival rate,E. coli BW25113; round 3,0.0001±0.0000%
same,MIC,E. coli K-12 [1],10 µg/mL
same,survival of the EHEC-infected worms,EHEC infection,enhanced the survival
CS(=O)(=O)OCCCCOS(C)(=O)=O [busulfan],antimicrobial activity,E. coli K-12 cells; 100 μg/mL,only cisplatin exhibited antimicrobial activity
O=NN(CCCl)C(=O)NCCCl [carmustine],antimicrobial activity,E. coli K-12 cells; 100 μg/mL,only cisplatin exhibited antimicrobial activity
O=C(O)c1cn(C2CC2)c2cc(N3CCNCC3)c(F)cc2c1=O [ciprofloxacin],survival rate,E. coli BW25113; round 1,0.045±0.008%
same,survival rate,E. coli BW25113; round 2,0.03±0.01%
same,survival rate,E. coli BW25113; round 3,0.012±0.002%
same,cells surviving,EHEC biofilm cultures,3±1%
same,survival,[2]; exponential phase,0.55±0.04%
same,survival,[2]; mid-stationary phase,2.2±0.1%
same,MIC,E. coli K-12 [1],0.05 µg/mL
same,time course dependent killing,E. coli K-12 [3],had little activity
same,surviving fraction of persister cells,[4],9±1%
same,survival,[5],18±2%
same,survival of the culturable population,[6],0.40±0.05%
same,survival of the EHEC-infected worms,EHEC infection,enhanced the survival
same,survival,"E. coli K-12 [7]; anaerobic, late-stationary phase cells in rich medium (LB)",0.44±0.08%
same,susceptibility of exponential-phase cultures,"E. coli K-12 [7]; exponential phase, M9-glucose",similarly susceptible
same,persistence (surviving population),E. coli K-12 [7]; M9-glucose,10±1%
same,cells survived,E. coli O157:H7 (EHEC),1.2±0.1%
O=P1(N(CCCl)CCCl)NCCCO1 (centres unmarked) [cyclophosphamide],antimicrobial activity,E. coli K-12 cells; 100 μg/mL,only cisplatin exhibited antimicrobial activity
COC1=C(C(=O)O)[C@H](C)[C@@]23O[C@]24c2cc(O)c5c(c2N[C@H]3C#C/C=C\C#C[C@H]14)C(=O)c1c(O)ccc(O)c1C5=O [dynemicin A],antimicrobial activity,E. coli K-12 cells,only cisplatin exhibited antimicrobial activity
N[C@@H](Cc1ccc(N(CCCl)CCCl)cc1)C(=O)O [melphalan],antimicrobial activity,E. coli K-12 cells; 100 μg/mL,only cisplatin exhibited antimicrobial activity
Nc1n[n+]([O-])c2ccccc2[n+]1[O-] [tirapazamine],antimicrobial activity,E. coli K-12 cells; 10 μg/mL,only cisplatin exhibited antimicrobial activity
gentamicin,persistence (surviving population),E. coli K-12 [7]; M9-glucose,44±5%
